According to patent publication US9592223B2, “Small molecule inhibitors of MALT1” (Cornell University, priority 2012, dated 2017):

Assays:
[1] = target: T1, paracaspase domain of MALT1 (residues 329-728) (Homo sapiens, UniProt Q9UDY8); assay: HSQC NMR binding; details: HSQC titration
T1 construct: labeled MALT1 (329-728) was expressed in BL21 (DE3) E. coli; made in house; host or cells: E. coli BL21 (DE3)
Method: Uniformly ^15N and ^13C labeled MALT1 (329-728) was expressed in BL21 (DE3) E. coli growing in M9 medium containing 1 g/l [^15N]ammonium chloride and 3 g/l [^13C]glucose (Cambridge Isotope Labs, Andover, Mass.) and purified from E. coli cell lysate as described in (Wiesmann et al., 2012).
Standard 2D ^1H ^13C NMR spectra of MALT1 (329-728) were recorded in samples containing 10.0 mg/ml protein in 50 mM HEPES (pH 7.5), 50 mM NaCl, and 10% D2O. NMR spectroscopy experiments were recorded on Bruker AV 500 MHz spectrometer (Bruker, Billerica, Mass.), at 310K.
Standard 2D ^1H ^15N HSQC spectra of MALT1 (329-728) were recorded in samples containing 70 μM protein in 25 mM Tris pH 7.5, 250 mM NaCl, 5 mM DTT, 10% D2O, 0.02% NaN3, 2% DMSO. HSQCs were run on a 600 MHz Varian (Varian, Palo Alto, Calif.) at 37° C.

HBL-1 cells = assay: MI-2 intracellular concentration in HBL-1 cells by LC-MS; assay type: in vitro ADME, human
OCI-Ly1 = assay: CFSE dilution assay by flow cytometry, GCB-DLBCL line; assay type: cell-based, human; details: viable cells at 48, 72 and 96 h
Method: Cell proliferation was examined using the CFSE dilution assay by flow cytometry on viable cells at 48, 72 and 96 h. […] Trypan blue exclusion and apoptosis assessed by Annexin V^+ DAPI^− flow cytometry was measured every 48 hr for a period of 14 days.
CFSE covalently labels long-lived intracellular molecules with carboxyfluorescein. Following each cell division, fluorescent molecules dilute in daughter cells, allowing comparative study of the kinetics of cell division. Cells were stained with DAPI (Sigma), followed by flow cytometry. DAPI^neg cells were gated for analysis.

NF-κB reporter activity = assay: NF-κB reporter assay in HBL-1 cells; assay type: cell-based, human
Description: Antigen receptor-mediated NF-κB signaling partly depends on MALT1 activity (Ruefli-Brasse et al., 2003; Ruland et al., 2003). […] First, 293T cells were transfected with the NF-κB reporter vector (NF-κB)5-luc2CP-pGL4 (harboring 5 copies of the NF-κB consensus response element and a destabilized Firefly luciferase) and TK-pRL control together with plasmids expressing BCL10 and either MALT1^WT or MALT1^C464A. […] HBL-1 was transfected with the reporter construct (NF-κB)5-luc2CP-pGL4 and TK-pRL control.
Reporter assays were performed in 293T cells seeded at a density of 2×10^5 cells per well of a 12-well dish. 100 ng of (NF-κB)5-Luc2CP-pGL4 and 10 ng of TK-Renilla internal control plasmid were cotransfected along with 25 ng of the indicated plasmids (MIGR1-MALT1^WT or MIGR1-MALT1^C464A and pcDNA4-Flag-Bcl10) using Lipofectamine 2000 (Invitrogen). Lysates were submitted to dual luciferase assays following manufacturer's protocol (Promega). In HBL-1, 5 μg of (NF-κB)5-Luc2CP-pGL4 and 50 ng of TK-Renilla internal control plasmid per 5×10^6 cells were cotransfected using nucleofection (Amaxa, Lonza, Basel, Switzerland). Forty-eight hours after transfection, cells were plated at a density of 5×10^4 cells per well of a 24-well plate and treated as indicated. Lysates were submitted to dual luciferase assays following manufacturer's protocol (Promega).

c-REL nuclear protein = assay: c-REL immunofluorescence in paraffinized xenograft tumor sections; assay type: in vivo, mice; details: IP 25 mg/kg/day
Description: Animals were sacrificed 24 hr after the fourteenth injection.
Paraffin-embedded tumor xenografts were sectioned, dewaxed and submitted to antigen retrieval. For IF-P, Alexa Fluor-488 conjugated secondary antibodies from Invitrogen where used and cell nuclei where counterstained with DAPI. Fluorescent images were taken using an Axiovert 200M fluorescent microscope (Carl Zeiss Inc., Thornwood, N.Y.). Oberkochen, Germany). For IHC, biotin-conjugated secondary antibodies where used. Then avidin/biotin peroxidase was applied to the slides (Vector Laboratories). Color was developed with diaminobenzoate chromogen peroxidase substrate (Vector) and counterstained with hematoxilin-eosyn. Pictures were obtained using an AxioCam (Carl Zeiss Inc.) camera attached to an AxioSkop II light microscope (Carl Zeiss Inc.). Samples were reviewed by a pathologist.

[2] = test system: ABC-DLBCL MALT1 independent cell lines U2932 and HLY-1; assay: Growth inhibition, MALT1 independent ABC-DLBCL cell lines; assay type: cell-based, human; details: increasing concentrations, single dose, 48 hr
Method: Endogenous MALT1 activity was evaluated by Western blotting for A20, BCL10 and CYLD; and NF-κB activation, by phospho-IκB-α and total IκB-α. Dependence on MALT1 proteolytic activity for proliferation was tested by 50[…]μM Z-VRPR-FMK treatment for 48 hr. […] The U2932 and HLY1 ABC-DLBCL cell lines harbor mutations in TAK1 and A20, which activate NF-κB signaling downstream of MALT1.
Cell proliferation was determined by ATP quantification using a luminescent method (CellTiter-Glo, Promega, Madison, Wis.) and Trypan blue dye-exclusion (Sigma, St. Louis, Mo.). Cell viability in drug-treated cells was normalized to their respective controls (fractional viability) and results are given as 1-fractional viability. […]
DLBCL cell lines were grown in exponential growth conditions during the 48 hr of treatment. Cell proliferation was determined by ATP quantification using a luminescent method (CellTiter-Glo, Promega, Madison, Wis.) and Trypan blue dye-exclusion (Sigma, St. Louis, Mo.). Luminescence was measured using the Synergy4 microplate reader (BioTek Instruments, Winooski, Vt.). Standard curves for each cell line were calculated by plotting the cell number (determined by the Trypan blue method) against their luminescence values and number of cells was calculated accordingly. […]

T1 sequence (Q9UDY8 329-728): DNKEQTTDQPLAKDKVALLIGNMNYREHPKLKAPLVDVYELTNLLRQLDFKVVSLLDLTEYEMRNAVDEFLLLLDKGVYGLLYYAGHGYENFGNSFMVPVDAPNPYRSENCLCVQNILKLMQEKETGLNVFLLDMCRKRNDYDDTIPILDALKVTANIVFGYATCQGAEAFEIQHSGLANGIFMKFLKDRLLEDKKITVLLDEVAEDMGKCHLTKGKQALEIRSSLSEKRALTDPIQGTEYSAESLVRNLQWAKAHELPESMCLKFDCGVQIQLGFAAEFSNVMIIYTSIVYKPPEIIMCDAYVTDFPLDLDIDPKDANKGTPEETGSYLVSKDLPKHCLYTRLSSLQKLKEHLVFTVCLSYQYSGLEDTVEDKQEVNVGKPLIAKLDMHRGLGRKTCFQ

## COCCOc1nc(-c2ccc(Cl)c(Cl)c2)n(-c2ccc(NC(=O)CCl)cc2)n1 [MI-2]
[1]
  binding by NMR spectroscopy: robust interaction
HBL-1 cells; 0.2 μM treated HBL-1 cells, 2 hr
  intracellular concentration: 5 µM
HBL-1 cells; 0.2 μM, by 12 hr
  free drug within the cells: virtually no detectable free MI-2
OCI-Ly1
  cell proliferation (CFSE dilution): did not affect
NF-κB reporter activity; HBL-1, 8 hr
  reduction in NF-κB reporter activity: 20%
NF-κB reporter activity; HBL-1, 24 hr
  reduction in NF-κB reporter activity: 50%
c-REL nuclear protein
  c-REL nuclear protein in tumors: reduced c-REL nuclear protein
[2]
  growth inhibition: resistant
